For the series, the system named is CCRIS mutagenicity, Ames/micronucleus/aberration tests. The series is described as follows: CCRIS mutagenicity studies.
Setting [1] is: Test System: AMES SALMONELLA TYPHIMURIUM, Strain/Indicator: TA98, Metabolic Activation: NONE, Method: STANDARD PLATE.
[2] abbreviates: Test System: AMES SALMONELLA TYPHIMURIUM, Strain/Indicator: TA100, Metabolic Activation: NONE, Method: STANDARD PLATE.
[3] abbreviates: Test System: AMES SALMONELLA TYPHIMURIUM, Strain/Indicator: TA1535, Metabolic Activation: NONE, Method: STANDARD PLATE.
The mark [4] stands for this setting: Test System: AMES SALMONELLA TYPHIMURIUM, Strain/Indicator: TA1537, Metabolic Activation: NONE, Method: STANDARD PLATE.
The mark [5] stands for this setting: Test System: AMES SALMONELLA TYPHIMURIUM, Strain/Indicator: TA1538, Metabolic Activation: NONE, Method: STANDARD PLATE.

The source made the active and inactive calls. How the calls were made is not given here.

With `CC(F)F`, the mutagenic call reads like this: (Test System: AMES SALMONELLA TYPHIMURIUM, Strain/Indicator: TA98, Metabolic Activation: NONE, Method: GAS EXPOSURE) “inactive; negative”; (Test System: AMES SALMONELLA TYPHIMURIUM, Strain/Indicator: TA98, Metabolic Activation: RAT LIVER S-9, PHENOBARBITAL AND BETA-NAPHTHOFLAVONE, Method: GAS EXPOSURE) “inactive; negative”; (Test System: AMES SALMONELLA TYPHIMURIUM, Strain/Indicator: TA100, Metabolic Activation: NONE, Method: GAS EXPOSURE) “inactive; negative”; (Test System: AMES SALMONELLA TYPHIMURIUM, Strain/Indicator: TA100, Metabolic Activation: RAT LIVER S-9, PHENOBARBITAL AND BETA-NAPHTHOFLAVONE, Method: GAS EXPOSURE) “inactive; negative”; (Test System: AMES SALMONELLA TYPHIMURIUM, Strain/Indicator: TA1535, Metabolic Activation: NONE, Method: GAS EXPOSURE) “inactive; negative”; (Test System: AMES SALMONELLA TYPHIMURIUM, Strain/Indicator: TA1535, Metabolic Activation: RAT LIVER S-9, PHENOBARBITAL AND BETA-NAPHTHOFLAVONE, Method: GAS EXPOSURE) “inactive; negative”. In addition, the mutagenic call by setting is: (Test System: AMES SALMONELLA TYPHIMURIUM, Strain/Indicator: TA1537, Metabolic Activation: NONE, Method: GAS EXPOSURE) “inactive; negative”; (Test System: AMES SALMONELLA TYPHIMURIUM, Strain/Indicator: TA1537, Metabolic Activation: RAT LIVER S-9, PHENOBARBITAL AND BETA-NAPHTHOFLAVONE, Method: GAS EXPOSURE) “inactive; negative”; (Test System: E.COLI, Strain/Indicator: WP2UVRA, Metabolic Activation: NONE, Method: GAS EXPOSURE) “inactive; negative”; (Test System: E.COLI, Strain/Indicator: WP2UVRA, Metabolic Activation: RAT LIVER S-9, PHENOBARBITAL AND BETA-NAPHTHOFLAVONE, Method: GAS EXPOSURE) “inactive; negative”.
Consider `CCCCC(CC)COC(=O)COc1ccc(Cl)cc1Cl` (configuration not stated), for which the mutagenic call by setting is: under setting [1], “inactive; negative”; (Test System: AMES SALMONELLA TYPHIMURIUM, Strain/Indicator: TA98, Metabolic Activation: RAT LIVER S-9, AROCLOR 1254, 10%, Method: STANDARD PLATE) “inactive; negative”; under setting [2], “inactive; negative”; (Test System: AMES SALMONELLA TYPHIMURIUM, Strain/Indicator: TA100, Metabolic Activation: RAT LIVER S-9, AROCLOR 1254, 10%, Method: STANDARD PLATE) “inactive; negative”; under setting [3], “inactive; negative”; (Test System: AMES SALMONELLA TYPHIMURIUM, Strain/Indicator: TA1535, Metabolic Activation: RAT LIVER S-9, AROCLOR 1254, 10%, Method: STANDARD PLATE) “inactive; negative”. Moreover, the mutagenic call by setting is: under setting [4], “inactive; negative”; (Test System: AMES SALMONELLA TYPHIMURIUM, Strain/Indicator: TA1537, Metabolic Activation: RAT LIVER S-9, AROCLOR 1254, 10%, Method: STANDARD PLATE) “inactive; negative”; under setting [5], “inactive; negative”; (Test System: AMES SALMONELLA TYPHIMURIUM, Strain/Indicator: TA1538, Metabolic Activation: RAT LIVER S-9, AROCLOR 1254, 10%, Method: STANDARD PLATE) “inactive; negative”; (Test System: UDS RAT HEPATOCYTES, Strain/Indicator: THYMIDINE INCORPORATION, Metabolic Activation: NONE, Method: AUTORADIOGRAPHY) “inactive; negative”.
For the molecule `O=[N+]([O-])c1ccc(/C=C/c2cccc([N+](=O)[O-])c2)cc1`, the mutagenic call runs as follows: (Test System: AMES SALMONELLA TYPHIMURIUM, Strain/Indicator: TA98 (NR), Metabolic Activation: NONE, Method: STANDARD PLATE) “active; positive”; (Test System: AMES SALMONELLA TYPHIMURIUM, Strain/Indicator: TA98 (NR), Metabolic Activation: S-9, Method: STANDARD PLATE) “inactive; negative”; under setting [1], “active; positive”; (Test System: AMES SALMONELLA TYPHIMURIUM, Strain/Indicator: TA98, Metabolic Activation: S-9, Method: STANDARD PLATE) “active; positive”; (Test System: AMES SALMONELLA TYPHIMURIUM, Strain/Indicator: TA100 (NR), Metabolic Activation: NONE, Method: STANDARD PLATE) “inactive; negative”; (Test System: AMES SALMONELLA TYPHIMURIUM, Strain/Indicator: TA100 (NR), Metabolic Activation: S-9, Method: STANDARD PLATE) “inactive; negative”. Further, the mutagenic call was “active; positive” under setting [2] and “active; positive” (Test System: AMES SALMONELLA TYPHIMURIUM, Strain/Indicator: TA100, Metabolic Activation: S-9, Method: STANDARD PLATE).
Consider `CCCCCCCCCCCCCCCCCCCCCCO`, for which the mutagenic call under setting [1] is “inactive; negative”; the mutagenic call (Test System: AMES SALMONELLA TYPHIMURIUM, Strain/Indicator: TA98, Metabolic Activation: RAT LIVER S-9, Method: STANDARD PLATE) was “inactive; negative”; the mutagenic call under setting [2] is “inactive; negative”; the mutagenic call (Test System: AMES SALMONELLA TYPHIMURIUM, Strain/Indicator: TA100, Metabolic Activation: RAT LIVER S-9, Method: STANDARD PLATE) was “inactive; negative”; the mutagenic call under setting [3] is “inactive; negative”; the mutagenic call (Test System: AMES SALMONELLA TYPHIMURIUM, Strain/Indicator: TA1535, Metabolic Activation: RAT LIVER S-9, Method: STANDARD PLATE) is “inactive; negative”. Besides, the mutagenic call by setting is: under setting [4], “inactive; negative”; (Test System: AMES SALMONELLA TYPHIMURIUM, Strain/Indicator: TA1537, Metabolic Activation: RAT LIVER S-9, Method: STANDARD PLATE) “inactive; negative”; under setting [5], “inactive; negative”; (Test System: AMES SALMONELLA TYPHIMURIUM, Strain/Indicator: TA1538, Metabolic Activation: RAT LIVER S-9, Method: STANDARD PLATE) “inactive; negative”; (Test System: CHINESE HAMSTER V-79, Strain/Indicator: V-79 (HGPRT)/THIOGUANINE, Metabolic Activation: NONE, Method: STANDARD PLATE) “inactive; negative”; (Test System: CHINESE HAMSTER V-79, Strain/Indicator: V-79 (HGPRT)/THIOGUANINE, Metabolic Activation: RAT LIVER S-9, Method: STANDARD PLATE) “inactive; negative”.
Regarding `Fc1ccc(F)c2c1ccc1cccnc12`, the mutagenic call (Test System: AMES SALMONELLA TYPHIMURIUM, Strain/Indicator: TA100, Metabolic Activation: RAT, LIVER, S-9, PHENOBARBITAL AND 5,6-BENZOFLAVONE, Method: PREINCUBATION) was “active; positive”.
Turning to `CN(C)c1ccc(N=Nc2ccccc2C(=O)O)cc1`, the mutagenic call runs as follows: (Test System: AMES SALMONELLA TYPHIMURIUM, Strain/Indicator: TA98, Metabolic Activation: RAT, LIVER, S-9, POLYCHLORINATED BIPHENYLS, Method: PREINCUBATION) “active; positive”; (Test System: AMES SALMONELLA TYPHIMURIUM, Strain/Indicator: TA100, Metabolic Activation: RAT, LIVER, S-9, POLYCHLORINATED BIPHENYLS, Method: PREINCUBATION) “inactive; negative”.
Consider `CC(=O)n1ncc(Cl)c(Cl)c1=O`, for which the mutagenic call under setting [1] is “inactive; negative”; the mutagenic call (Test System: AMES SALMONELLA TYPHIMURIUM, Strain/Indicator: TA98, Metabolic Activation: RAT, LIVER, S-9, AROCLOR 1254, Method: STANDARD PLATE) is “inactive; negative”; the mutagenic call under setting [2] is “inactive; negative”; the mutagenic call (Test System: AMES SALMONELLA TYPHIMURIUM, Strain/Indicator: TA100, Metabolic Activation: RAT, LIVER, S-9, AROCLOR 1254, Method: STANDARD PLATE) was “inactive; negative”; the mutagenic call under setting [3] is “inactive; negative”; the mutagenic call (Test System: AMES SALMONELLA TYPHIMURIUM, Strain/Indicator: TA1535, Metabolic Activation: RAT, LIVER, S-9, AROCLOR 1254, Method: STANDARD PLATE) is “inactive; negative”. Further, the mutagenic call reads like this: under setting [4], “inactive; negative”; (Test System: AMES SALMONELLA TYPHIMURIUM, Strain/Indicator: TA1537, Metabolic Activation: RAT, LIVER, S-9, AROCLOR 1254, Method: STANDARD PLATE) “inactive; negative”.
As to `CCN(CC)c1ccc(N=Nc2c(Cl)cc([N+](=O)[O-])cc2[N+](=O)[O-])c(NC(C)=O)c1`, the mutagenic call (End Point: IN VITRO CHROMOSOMAL ABERRATIONS, Test System: CHL CELLS, Metabolic Activation: NONE) was “inactive; negative; precipitation of test chemical observed above 0.01 mg/ml”.
`c1ccc2c(CCC3CO3)cccc2c1` (configuration not stated): the mutagenic call was “active; positive” (Test System: AMES SALMONELLA TYPHIMURIUM, Strain/Indicator: TA100, Metabolic Activation: NONE, Method: PREINCUBATION); “active; positive” under setting [2]; “active; positive” (Test System: AMES SALMONELLA TYPHIMURIUM, Strain/Indicator: TA1535, Metabolic Activation: NONE, Method: PREINCUBATION); “active; positive” under setting [3].

The values above are taken from PubChem BioAssay AID1259407 (Chemical Carcinogenesis Research Information System (CCRIS), 2018).
